In paper PMC10215198, “Antibacterial Conjugates of Kanamycin A with Vancomycin and Eremomycin: Biological Activity and a New MS-Fragmentation Pattern of Cbz-Protected Amines” (Antibiotics, 2023):
In brackets after ≈: the same amount, converted by molar mass.

Tests used:
[1] = test system: Escherichia coli 25922 ATCC; assay: MIC, broth micro-dilution, Gram-negative strain; type: cell-based; settings: Mueller Hinton broth, inoculum 5 × 10^5 CFU/mL, 24 h at 36 °C
Procedure: (§1) We performed a study of antibacterial activity of the synthesized compounds 17 on a panel of clinical isolates of the Gram-positive microorganisms S. haemolyticus 602, S. aureus 3798 (VISA), and Enterococcus faecalis 560 (Van A) and against the Gram-negative strain Escherichia coli 25922 ATCC by the MTT method (Table 1).
(§2) The in vitro study was performed according to the recommendations of the European Committee on Antimicrobial Susceptibility testing. The MIC values for Gram-positive and Gram-negative bacterial strains were determined by the broth micro-dilution method using Mueller Hinton broth (Acumedia Manufacturers Inc., Lansing, MI, USA) and the National Committee for Clinical Laboratory Standards procedures as described earlier.

S. aureus 3798 (VISA) = assay: MIC, broth micro-dilution, Gram-positive clinical isolate (VISA); type: cell-based, Staphylococcus aureus; settings: Mueller Hinton broth, inoculum 5 × 10^5 CFU/mL, 24 h at 36 °C
Procedure: as §1, §2

[2] = test system: Enterococcus faecalis 560 (Van A); assay: MIC, broth micro-dilution, Gram-positive clinical isolate (Van A); type: cell-based; settings: Mueller Hinton broth, inoculum 5 × 10^5 CFU/mL, 24 h at 36 °C
Procedure: as §1, §2

S. haemolyticus 602 = assay: MIC, broth micro-dilution, Gram-positive clinical isolate; type: cell-based, Staphylococcus haemolyticus; settings: Mueller Hinton broth, inoculum 5 × 10^5 CFU/mL, 24 h at 36 °C
Procedure: as §1, §2

Gram-positive bacteria = settings: compared with vancomycin; cited from earlier work
Description: Another antibiotic drug of this class, eremomycin (2), was discovered at the Gause Institute of New Antibiotics. It was isolated from Amycolatopsis orientalis subsp.

Compound | MIC (Minimum Inhibitory Antibiotic Concentration), E. coli 25922 ATCC [1] [µg/mL] | MIC (Minimum Inhibitory Antibiotic Concentration), S. aureus 3798 (VISA) (S. aureus 3798 (VISA)) [µg/mL] | MIC (Minimum Inhibitory Antibiotic Concentration), E. faecalis 560 (Van A) [2] [µg/mL] | MIC (Minimum Inhibitory Antibiotic Concentration), E. coli 25922 ATCC ([1]; listed as 2) [µg/mL] | MIC (Minimum Inhibitory Antibiotic Concentration), S. haemoliticus 602 (S. haemolyticus 602) [µg/mL] | efficacy against Gram-positive bacteria relative to vancomycin (Gram-positive bacteria) | MIC (Minimum Inhibitory Antibiotic Concentration), E. coli 25922 ATCC ([1]; listed as 1) [µg/mL]
3,6′-Di-Cbz-Kanamycinyl A 1-Amide of Eremomycin [Compound 6] | >64 | 4 | 8 | – | – | – | –
3,6′-Di-Cbz-Kanamycinyl A 1-Amide of Vancomycin [Compound 5] | >64 | 2 | 32 | – | – | – | –
CN[C@H](CC(C)C)C(=O)N[C@H]1C(=O)N[C@@H](CC(N)=O)C(=O)N[C@H]2C(=O)N[C@H]3C(=O)N[C@H](C(=O)N[C@@H](C(=O)O)c4cc(O)cc(O)c4-c4cc3ccc4O)[C@H](O[C@@H]3C[C@@](C)(N)[C@H](O)[C@@H](C)O3)c3ccc(cc3)Oc3cc2cc(c3O[C@H]2O[C@@H](CO)[C@H](O)[C@@H](O)[C@@H]2O[C@H]2C[C@](C)(N)[C@@H](O)[C@H](C)O2)Oc2ccc(cc2Cl)[C@H]1O (stereo in doubt) [Eremomycin (2), Eremomycin] | 64 (≈ 41.1 µM) | 16 (≈ 10.3 µM) | >64 | > 64 | 0.25 (≈ 0.16 µM) | three to five times higher | –
NC1CC(NC(=O)OCc2ccccc2)C(OC2OC(CNC(=O)OCc3ccccc3)C(O)C(O)C2O)C(O)C1OC1OC(CO)C(O)C(N)C1O (centres unmarked) [Compound 4, 3,6′-Di-Benzyloxycarbonyl-Kanamycin A] | >64 | – | – | – | – | – | –
CN[C@H](CC(C)C)C(=O)N[C@H]1C(=O)N[C@@H](CC(N)=O)C(=O)N[C@H]2C(=O)N[C@H]3C(=O)N[C@H](C(=O)N[C@H](C(=O)O)c4cc(O)cc(O)c4-c4cc3ccc4O)[C@H](O)c3ccc(c(Cl)c3)Oc3cc2cc(c3O[C@@H]2O[C@H](CO)[C@@H](O)[C@H](O)[C@H]2O[C@H]2C[C@](C)(N)[C@H](O)[C@H](C)O2)Oc2ccc(cc2Cl)[C@H]1O [Vancomycin (1), Vancomycin] | >64 | 8 (≈ 5.52 µM) | >64 | – | 1 (≈ 0.69 µM) | – | > 64
Kanamycin A [Kanamycin A (3)] | 4 | – | – | – | – | – | –
Kanamycinyl A 1-Amide of Eremomycin [Compound 7] | >64 | 2 | 32 | – | 0.25 | – | –
